From patent US12721537B2, “System and method for measuring blood flow velocity on a microfluidic chip” (CASE WESTERN RESERVE UNIVERSITY, priority 2020, dated 2026)

Legend:
[1] = test system: whole blood; details: sodium citrate whole blood recalcified to 100 mM CaCl2, constant inlet pressure 20 mBar, PIV
Experimental: The whole blood sample for this example was drawn into a 3.2% sodium citrate containing vacutainer from a single healthy donor under an Institutional review board-approved protocol. The blood sample was stored at 4° C. upon collection and was processed within 24 h. […] Prior to the experiment, the whole blood sample was recalcified with the stock solution to obtain a final concentration of 100 mM CaCl2. […] The control experiment was performed by mixing the whole blood sample with PBS. Thereafter, the mixed blood sample was immediately injected into the microfluidic channel at a constant inlet pressure of 20 mBar by means of a Flow-EZ pressure control unit (Fluigent Inc., North Chelmsford, MA), as shown in FIG. 2. The constant supply pressure implies that the flow rate is reduced as the blood coagulates. The maximum initial shear rate was approximately 10 s^−1, and the shear rate reduced to zero as the flow slowed and eventually stopped due to microchannel blockage as coagulation occurred. The microfluidic channel was placed on an inverted microscope (Olympus IX83), and a video was recorded simultaneously under 4× magnification using a high-resolution camera (EXi Blue EXI-BLU-R-F-M-14-C) at 10 frames per second as soon as the flow was started. The field of view was centered on the microfluidic channel, and one pixel in the images corresponds to 1.58 μm. […]

[2] = test system: citrate whole blood; assay: Thrombin-induced thrombus formation in a microchannel; format: cell-based; details: citrate whole blood reconstituted with 16.7 μM calcium chloride only
Text: The influence of clotting disorders and therapies can be assessed in a case study using elevated levels of thrombin to promote coagulation. […] It is hypothesized that elevated levels of thrombin will produce distinctive, quantifiable effects on the evolution of the blood flow and the associated formation and growth of thrombi, and these experiments will allow us to assess the ability of our model to identify those effects. Additionally, the effect of heparin, a common anticoagulant therapy, on the blood flow will be evaluated by adding heparin into the blood samples at appropriate doses.

Question: How did the “clotting time (dramatic drop in mean blood flow velocity)” value [1] turn out when [Ca+2].[Cl-].[Cl-] [CaCl2, calcium chloride] was run?
Answer: ~220 s

Question: What about the “blood flow in microchannel” value [2] of the same compound?
Answer: flows uniformly

Question: What about the “thrombus formation in microchannel” value [2] of the same compound?
Answer: No thrombus formation
